Measured values from patent US20220064260A1, “ISOLATED MHC-DERIVED HUMAN PEPTIDES AND USES THEREOF FOR STIMULATING AND ACTIVATING THE SUPPRESSIVE FUNCTION OF CD8+CD45RCLOW TREGS” (INSERM (INSTITUT NATIONAL DE LA SANTÉ ET DE LA RECHERCHE …, priority 2018, published 2022).

What was measured:
[1] = tested on: CD8+CD45RClow Tregs; experiment: Peptide stimulation assay (CD8+CD45RClow Treg activation by CD25 and CD69 expression); type: cell-based, human; details: 5-days culture, syngeneic CD8+CD45RClow Tregs and autologous HLA-A2+ pDCs, IL-2 and CpG ODN, peptide 120 μg/ml, versus control peptide
Procedure: Peptide Stimulation Assay
CD8^+ CD45RC^low Treg cells and autologous pDCs from the same healthy HLA-A2^+ donor were co-cultured in serum-free Texmacs medium (Miltenyi Biotec) supplemented with IL-2 (25 U/ml, Proleukin, Novartis), CpG ODN 2006 (0.5 μM) and the different synthesized peptides (120 μg/ml) at a ratio 4:1 of Tregs:pDCs for 5 days. CD8^+CD45RC^low Treg activation was analyzed based on expression of CD69 and CD25 markers. As negative control and in order to normalize the results, a negative peptide was used (ALIAPVHAV). Dapi was used as viability marker. As a positive control, CD8^+ CD45RC^low Tregs were stimulated with anti-CD3 (OKT3, 1 μg/ml) and anti-CD28 mAbs (clone: CD28.2; 1 μg/ml). Results were analyzed using the FACS Canto II cytometer (BD Biosciences) and Flowjo software (Tree Star, Inc. USA, version 10).
For the peptide activation test, a non-parametric Wilcoxon signed-rank test, comparing column median to a hypothetical value of 1.0, was done. Analyses were made with GraphPad Prism 7 software (GraphPad).
Four 16aa peptides were designed from four random human MHC class II alleles based on the sequences of the Du51 peptide (NREEYARFDSDVGEYR) and the overlapping 12-mer peptide Bu31-10 (YLRYDSDVGEYR) both bearing the SDVGEYR motif at C-term end (FIG. 1): Hpep1 (NQEESVRFDSDVGEFR-SEQ ID NO: 1), Hpep2 (NREEYARFDSDVGEFR-SEQ ID NO: 2), Hpep3 (NREEYARFDSDVGVYR-SEQ ID NO: 3) and Hpep4 (NREEYVRFDSDVGEYR-SEQ ID NO: 4). We individually tested these peptides differing at positions 2, 5, 6, 14 or 15 in a 5-days culture assay using and syngeneic CD8^+CD45RC^low Tregs and autologous HLA-A2^+ pDCs from the same individuals in presence of interleukin-2 (IL-2) and CpG oligodeoxynucleotides (or CpG ODN) in serum free Texmacs medium (FIG. 2). […] These three peptides share the conserved SDVGE-X-R (SEQ ID NO: 13) 7aa motif while Hpep3 has in addition a valine (V) in place of the glutamic acid (E) at position 14 of the peptide, probably impacting TCR recognition.

[2] = tested on: CD4+CD25- T cells; experiment: Suppression assay (proliferation of CFSE-labeled CD4+CD25- Teffs stimulated with allogeneic APCs); type: cell-based, human; details: Tregs expanded 14 days, co-cultured 5 days at 1:1:1 with syngeneic CD4+CD25- T cells and pooled allogeneic APCs; compared to fresh Tregs
Procedure: CFSE-labeled CD4^+ CD25^− Teffs and CD8^+ CD45RC^low Tregs from the same healthy volunteer (HLA-A2^+) were co-cultured with a pool of allogeneic APCs from 3 different healthy donors (HLA-A2^−) in RPMI1640 medium supplemented with 5% human AB serum. Culture was done at 1:1:1 ratio (where 1=5×10^4 cells/well) for 5 days in triplicate in a V-bottom 96 well plate. Proliferation of CD4^+CD25^− responder T cells was analyzed by flow cytometry (FACS Canto II BD Biosciences TM) by gating on CD3^+CD4^+ living cells (DAPI negative) and using Flowjo software (Tree Star, Inc. USA, version 10).

[3] = tested on: CD8+CD45RClow Tregs; experiment: Expansion in vitro of human CD8+CD45RClow Tregs; type: cell-based; details: 14 days culture with autologous APCs, IL-2, IL-15 and CpG ODN, versus day 0
Procedure: Expansion In Vitro of Human CD8^+CD45RC^low Tregs
5×10^5 CD8^+CD45RC^low Tregs and 2×10^6 autologous APCs from HLA-A2^+ healthy donors were seeded in a 24 well plate in Texmacs Medium (Miltenyi Biotec), supplemented with penicillin (100 U/ml), streptomycin (100 μg/ml), rhlL-2 (1000 U/ml, Proleukin, Novartis), rhIL-15 (10 ng/ml, Miltenyi Biotec), CpG (0.5 μM), and the different peptides (120 μg/ml) derived from HLA-II molecule (GenScript). As negative control, a negative irrelevant peptide (ALIAPVHAV) was used. As a positive control, CD8^+CD45RC^low Tregs were stimulated with plate-coated anti-CD3 (clone: OKT3, 1 μg/ml) mAb and soluble anti-CD28 mAb (clone: CD28.2; 1 μg/ml). At day 7, Tregs were counted and re-expanded. Cytokines were freshly added twice a week. Finally, at day 14, cells were used for experiments.
To determine whether CD8^+ CD45RC^low Tregs could be expanded using this MHC-II derived peptide, an expansion protocol was set up using sorted CD8^+CD45RC^low/− Tregs and APCs from the same individual with the Hpep2 peptide in presence of IL-2, IL-15 and CpG ODN and compared to a polyclonal stimulation (anti-CD3/28) in similar conditions (FIG. 4).

[4] = tested on: CD8+CD45RClow Tregs; experiment: Extracellular and intracellular stainings of expanded Tregs (flow cytometry); type: cell-based, human; details: 14 days expansion, Hpep2 versus anti-CD3/28 expanded Tregs
Procedure: Extracellular and Intracellular Stainings
For the analysis of GITR (clone: DT5D3, Miltenyi Biotec), Foxp3 (clone:259D/C7, BD Biosciences), IL-10 (clone: JES3-9D7 , BD Biosciences), IL-34 (clone: IC5265P, R&D), TGFβ1 (clone: TW4-9E7, BD Biosciences) and IFNγ (clone: B27, BD Biosciences), CD8^+CD45RC^low Treg cells were stimulated with PMA (50 ng/ml) and ionomycin (1 μg/ml) for 5 h in presence of Brefeldin A (10 μg/ml) for the last 4 hours in Texmacs medium (Miltenyi Biotec). In order to select viable cells, Fixable Viability Dye eF506 (ThermoFisher Scientific) was used as viability marker. Fc receptors were blocked before staining (BD Biosciences) and cells were permeabilized with Fix/Perm kit (Ebiociences) for intracellular staining Cell phenotype was analyzed by flow cytometry using the LSR II (BD Biosciences, Mountain View, Calif.) and Flowjo software (Tree Star. Inc. USA, version 10).

[5] = tested on: allograft; details: rats treated with the peptide only (WO2015/150492); cited from earlier work

Row | Sequence | CD25 expression on Tregs [1] | CD69 expression on Tregs [1] | suppressive activity of expanded CD8+CD45RClow Tregs on an allogeneic immune response [2] | total Treg fold expansion [3] | level of expression of Foxp3, GITR, IL-10, IFNγ and IL-34 in expanded CD8+CD45RClow Tregs [4] | allograft tolerance in recipient rats [5]
1 | NQEESVRFDSDVGEFR (listed as Homo sapiens) [Hpep1, 16aa peptide designed from a human MHC class II allele] | upregulated | upregulated | – | – | – | –
2 | NREEYARFDSDVGEFR (listed as Homo sapiens) [Hpep2, 16aa peptide designed from a human MHC class II allele] | upregulated | upregulated | efficient at suppressing an allogeneic immune response | 10 fold | no significant differences | –
3 | NREEYARFDSDVGEYR [Du51, dominant MHC class II-derived antigen recognized by TCR-biased CD8+ Tregs in rats (WO2015/150492)] | – | – | – | – | – | donor-specific allograft tolerance induction
4 | NREEYVRFDSDVGEYR (listed as Homo sapiens) [Hpep4, 16aa peptide designed from a human MHC class II allele] | upregulated | upregulated | – | – | – | –
